Reference: BindingDB's records for doi:10.1021/jm010087e (The University of Western Australia, 2001)

assay: Inhibitory activity against clostridium histolyticum collagenase

SMILES	Ki [nM]
CC(C(=O)O)N(Cc1ccccc1[N+](=O)[O-])S(=O)(=O)c1ccc(Cl)cc1 (stereo not given) [2-[(4-Chloro-benzenesulfonyl)-(2-nitro-benzyl)-amino]-propionic acid]	11000
CC(C(=O)NO)N(Cc1ccccc1[N+](=O)[O-])S(=O)(=O)c1ccc(F)cc1 (stereo not given) [2-[(4-Fluoro-benzenesulfonyl)-(2-nitro-benzyl)-amino]-N-hydroxy-propionamide]	30
CC(C(=O)O)N(Cc1ccccc1[N+](=O)[O-])S(=O)(=O)c1ccc(F)cc1 (stereo not given) [2-[(4-Fluoro-benzenesulfonyl)-(2-nitro-benzyl)-amino]-propionic acid]	12000
CC(C(=O)O)N(Cc1ccccc1[N+](=O)[O-])S(=O)(=O)c1ccc(I)cc1 (stereo not given) [2-[(4-Iodo-benzenesulfonyl)-(2-nitro-benzyl)-amino]-propionic acid]	11000
COc1ccc(S(=O)(=O)N(Cc2ccccc2[N+](=O)[O-])C(C)C(=O)O)cc1 (stereo not given) [2-[(4-Methoxy-benzenesulfonyl)-(2-nitro-benzyl)-amino]-propionic acid]	5700
CC(C(=O)O)N(Cc1ccccc1[N+](=O)[O-])S(=O)(=O)c1ccc([N+](=O)[O-])cc1 (stereo not given) [2-[(4-Nitro-benzenesulfonyl)-(2-nitro-benzyl)-amino]-propionic acid]	5000
CC(C(=O)O)N(Cc1ccccc1[N+](=O)[O-])S(=O)(=O)c1ccc(NC(=O)OC(C)(C)C)cc1 (stereo not given) [2-[(4-tert-Butoxycarbonylamino-benzenesulfonyl)-(2-nitro-benzyl)-amino]-propionic acid]	2600
CC(C(=O)NO)N(Cc1ccccc1[N+](=O)[O-])S(=O)(=O)c1cccc2c(N(C)C)cccc12 (stereo not given) [2-[(5-Dimethylamino-naphthalene-1-sulfonyl)-(2-nitro-benzyl)-amino]-N-hydroxy-propionamide]	9
CC(C(=O)O)N(Cc1ccccc1[N+](=O)[O-])S(=O)(=O)c1cccc2c(N(C)C)cccc12 (stereo not given) [2-[(5-Dimethylamino-naphthalene-1-sulfonyl)-(2-nitro-benzyl)-amino]-propionic acid]	2100
CC(C(=O)NO)N(Cc1ccccc1[N+](=O)[O-])S(=O)(=O)C(F)(F)C(F)(F)C(F)(F)C(F)(F)C(F)(F)C(F)(F)C(F)(F)C(F)(F)F (stereo not given) [2-[(Heptadecafluorooctane-1-sulfonyl)-(2-nitro-benzyl)-amino]-N-hydroxy-propionamide]	8
CC(C(=O)O)N(Cc1ccccc1[N+](=O)[O-])S(=O)(=O)C(F)(F)C(F)(F)C(F)(F)C(F)(F)C(F)(F)C(F)(F)C(F)(F)C(F)(F)F (stereo not given) [2-[(Heptadecafluorooctane-1-sulfonyl)-(2-nitro-benzyl)-amino]-propionic acid]	1700
CC(C(=O)O)N(Cc1ccccc1[N+](=O)[O-])S(=O)(=O)c1cccc2ccccc12 (stereo not given) [2-[(Naphthalene-1-sulfonyl)-(2-nitro-benzyl)-amino]-propionic acid]	1600
CC(C(=O)O)N(Cc1ccccc1[N+](=O)[O-])S(=O)(=O)c1ccc2ccccc2c1 (stereo not given) [2-[(Naphthalene-2-sulfonyl)-(2-nitro-benzyl)-amino]-propionic acid]	1800
Cc1ccccc1S(=O)(=O)NC(=O)N(Cc1ccccc1[N+](=O)[O-])C(C)C(=O)O (stereo not given) [2-[({[(2-methylphenyl)sulfonyl]amino}carbonyl)(2-nitrobenzyl)amino]propanoic acid]	3000
CC(C(=O)NO)N(Cc1ccccc1[N+](=O)[O-])C(=O)NS(=O)(=O)c1ccc(Cl)cc1 (stereo not given) [2-[({[(4-chlorophenyl)sulfonyl]amino}carbonyl)(2-nitrobenzyl)amino]-N-hydroxypropanamide]	7
CC(C(=O)O)N(Cc1ccccc1[N+](=O)[O-])C(=O)NS(=O)(=O)c1ccc(Cl)cc1 (stereo not given) [2-[({[(4-chlorophenyl)sulfonyl]amino}carbonyl)(2-nitrobenzyl)amino]propanoic acid]	2700
CC(C(=O)NO)N(Cc1ccccc1[N+](=O)[O-])C(=O)NS(=O)(=O)c1ccc(F)cc1 (stereo not given) [2-[({[(4-fluorophenyl)sulfonyl]amino}carbonyl)(2-nitrobenzyl)amino]-N-hydroxypropanamide]	8
CC(C(=O)O)N(Cc1ccccc1[N+](=O)[O-])C(=O)NS(=O)(=O)c1ccc(F)cc1 (stereo not given) [2-[({[(4-fluorophenyl)sulfonyl]amino}carbonyl)(2-nitrobenzyl)amino]propanoic acid]	3000
Cc1ccc(S(=O)(=O)NC(=O)N(Cc2ccccc2[N+](=O)[O-])C(C)C(=O)O)cc1 (stereo not given) [2-[({[(4-methylphenyl)sulfonyl]amino}carbonyl)(2-nitrobenzyl)amino]propanoic acid]	3100
CC(C(=O)NO)N(Cc1ccccc1[N+](=O)[O-])S(=O)(=O)c1ccccc1 (stereo not given) [2-[Benzenesulfonyl-(2-nitro-benzyl)-amino]-N-hydroxy-propionamide]	59
CC(C(=O)O)N(Cc1ccccc1[N+](=O)[O-])S(=O)(=O)c1ccccc1 (stereo not given) [2-[Benzenesulfonyl-(2-nitro-benzyl)-amino]-propionic acid]	27000
CC(C(=O)O)N(Cc1ccccc1[N+](=O)[O-])S(C)(=O)=O (stereo not given) [2-[Methanesulfonyl-(2-nitro-benzyl)-amino]-propionic acid]	22000
CC(C(=O)NO)N(Cc1ccccc1[N+](=O)[O-])S(=O)(=O)N(C)C (stereo not given) [2-[[(dimethylamino)sulfonyl](2-nitrobenzyl)amino]-N-hydroxypropanamide]	79

SMILES	Ki [nM]
CC(C(=O)O)N(Cc1ccccc1[N+](=O)[O-])S(=O)(=O)N(C)C (stereo not given) [2-[[(dimethylamino)sulfonyl](2-nitrobenzyl)amino]propanoic acid]	43000
CC(C(=O)O)N(Cc1ccccc1[N+](=O)[O-])S(=O)(=O)c1cccc(C(=O)O)c1 (stereo not given) [3-[(1-Carboxy-ethyl)-(2-nitro-benzyl)-sulfamoyl]-benzoic acid]	2100
CC(C(=O)NO)N(Cc1ccccc1[N+](=O)[O-])S(=O)(=O)c1cccc(C(=O)O)c1 (stereo not given) [3-[(1-Hydroxycarbamoyl-ethyl)-(2-nitro-benzyl)-sulfamoyl]-benzoic acid]	8
CC(C(=O)O)N(Cc1ccccc1[N+](=O)[O-])S(=O)(=O)c1ccc(C(=O)O)cc1 (stereo not given) [4-[(1-Carboxy-ethyl)-(2-nitro-benzyl)-sulfamoyl]-benzoic acid]	1900
CC(C(=O)NO)N(Cc1ccccc1[N+](=O)[O-])S(=O)(=O)c1ccc(C(=O)O)cc1 (stereo not given) [4-[(1-Hydroxycarbamoyl-ethyl)-(2-nitro-benzyl)-sulfamoyl]-benzoic acid]	7
CC(C(=O)NO)N(Cc1ccccc1[N+](=O)[O-])C(=O)Nc1cccc2ccccc12 (stereo not given) [N-Hydroxy-2-[3-naphthalen-1-yl-1-(2-nitro-benzyl)-ureido]-propionamide]	10
CC(C(=O)NO)N(Cc1ccccc1[N+](=O)[O-])S(=O)(=O)c1ccccc1[N+](=O)[O-] (stereo not given) [N-Hydroxy-2-[(2-nitro-benzenesulfonyl)-(2-nitro-benzyl)-amino]-propionamide]	11
Cc1cc(C)c(S(=O)(=O)N(Cc2ccccc2[N+](=O)[O-])C(C)C(=O)NO)c(C)c1 (stereo not given) [N-Hydroxy-2-[(2-nitro-benzyl)-(2,4,6-trimethyl-benzenesulfonyl)-amino]-propionamide]	21
CC(C(=O)NO)N(Cc1ccccc1[N+](=O)[O-])Sc1ccccc1[N+](=O)[O-] (stereo not given) [N-Hydroxy-2-[(2-nitro-benzyl)-(2-nitro-phenylsulfanyl)-amino]-propionamide]	12
CC(C(=O)NO)N(Cc1ccccc1[N+](=O)[O-])S(=O)(=O)c1cccc(C(F)(F)F)c1 (stereo not given) [N-Hydroxy-2-[(2-nitro-benzyl)-(3-trifluoromethyl-benzenesulfonyl)-amino]-propionamide]	5
CC(C(=O)NO)N(Cc1ccccc1[N+](=O)[O-])Sc1ccc([N+](=O)[O-])cc1 (stereo not given) [N-Hydroxy-2-[(2-nitro-benzyl)-(4-nitro-phenylsulfanyl)-amino]-propionamide]	13
CC(C(=O)NO)N(Cc1ccccc1[N+](=O)[O-])S(=O)(=O)C(F)(F)C(F)(F)C(F)(F)C(F)(F)F (stereo not given) [N-Hydroxy-2-[(2-nitro-benzyl)-(nonafluorobutane-1-sulfonyl)-amino]-propionamide]	10
CC(C(=O)NO)N(Cc1ccccc1[N+](=O)[O-])S(=O)(=O)c1cccc2cccnc12 (stereo not given) [N-Hydroxy-2-[(2-nitro-benzyl)-(quinoline-8-sulfonyl)-amino]-propionamide]	9
CC(C(=O)NO)N(Cc1ccccc1[N+](=O)[O-])S(=O)(=O)c1cccs1 (stereo not given) [N-Hydroxy-2-[(2-nitro-benzyl)-(thiophene-2-sulfonyl)-amino]-propionamide]	10
Cc1ccc(S(=O)(=O)N(Cc2ccccc2[N+](=O)[O-])C(C)C(=O)NO)cc1 (stereo not given) [N-Hydroxy-2-[(2-nitro-benzyl)-(toluene-4-sulfonyl)-amino]-propionamide]	41
CC(C(=O)NO)N(Cc1ccccc1[N+](=O)[O-])S(=O)(=O)Cc1ccccc1 (stereo not given) [N-Hydroxy-2-[(2-nitro-benzyl)-phenylmethanesulfonyl-amino]-propionamide]	55
CC(C(=O)NO)N(Cc1ccccc1[N+](=O)[O-])S(=O)(=O)C(Cl)(Cl)Cl (stereo not given) [N-Hydroxy-2-[(2-nitro-benzyl)-trichloromethanesulfonyl-amino]-propionamide]	64
CC(C(=O)NO)N(Cc1ccccc1[N+](=O)[O-])S(=O)(=O)C(F)(F)F (stereo not given) [N-Hydroxy-2-[(2-nitro-benzyl)-trifluoromethanesulfonyl-amino]-propionamide]	70
CC(C(=O)NO)N(Cc1ccccc1[N+](=O)[O-])S(=O)(=O)c1cccc([N+](=O)[O-])c1 (stereo not given) [N-Hydroxy-2-[(3-nitro-benzenesulfonyl)-(2-nitro-benzyl)-amino]-propionamide]	10
CC(C(=O)NO)N(Cc1ccccc1[N+](=O)[O-])S(=O)(=O)c1ccc(I)cc1 (stereo not given) [N-Hydroxy-2-[(4-iodo-benzenesulfonyl)-(2-nitro-benzyl)-amino]-propionamide]	34
CC(C(=O)NO)N(Cc1ccccc1[N+](=O)[O-])S(=O)(=O)c1ccc([N+](=O)[O-])cc1 (stereo not given) [N-Hydroxy-2-[(4-nitro-benzenesulfonyl)-(2-nitro-benzyl)-amino]-propionamide]	13
CC(C(=O)NO)N(Cc1ccccc1[N+](=O)[O-])S(=O)(=O)c1cccc2ccccc12 (stereo not given) [N-Hydroxy-2-[(naphthalene-1-sulfonyl)-(2-nitro-benzyl)-amino]-propionamide]	6
